How the values were obtained:
PBMC = test: Quantitative real-time PCR gene modulation in PBMC; type: cell-based, human; details: PBMC treated with 1 μM ITF3756, 4 hours; qPCR vs vehicle-treated cells
Description: The gene expression has been determined by comparing the expression of the above genes in the treated cells versus vehicle-treated cells. PBMC were resuspended in RPMI 1640 medium (Dutch modified, ThermoFisher) at the density of 1×10^6 cells/ml. Cells were plated in 6-well plates (Corning), 3 ml per well. Cells were treated with […] at four concentrations: 0.25, 0.5, 1 and 2 μM. Each treatment concentration was replicated in 3 wells for experimental triplicate test. Vehicle (DMSO 0.05%) treated cells were plated at the same density and volumes. Plates were incubated for 4 hours at 37° C. 5% C02. At the end of treatment incubation cells were collected for total RNA extraction. After treatment with the test compound, PBMC were withdrawn from 6-well plates and collected in 15 ml tubes (Falcon). Wells were washed once with 1 ml of PBS pH 7.4 (ThermoFisher) and the wash volume was added to the collected cell suspensions. […] RNA concentration was determined using Nano Drop 1000 spectrophotometer. […] 3 μl of cDNA corresponding to 40 ng of template were added to PCR reaction reagent for a total volume of 15 μl as shown below: The level of mRNA expression modulation was evaluated comparing the mRNA level in treated versus not-treated samples; all data were normalized versus the average expression signal of three housekeeping genes (reference genes: UBC, B2M and HPRT1) in the corresponding samples. […]

[1] = mouse, in vivo, 1000 mg/kg
CT26 tumor cells = test: CT26 tumor volume in BALB/c mice, responders and non-responders; type: in vivo; details: CT26 s.c. in BALB/c mice, treatment day 10 to day 20; three groups of animals with different tumor reduction
Description: (§1) Adult BALB/c mice were injected s.c. with 1×10^6 CT26 tumor cells (diluted to 100 μl with phosphate buffered saline) and treated with anti-PD1 or ITF3756 when the tumor volume reached 75-100 mm^3, to explore the modulation of genes in the tumor microenvironment by RNAseq. Since ITF3756 acts on the PD-1/PD-L1 axis, this approach allows the identification of genes specific and common to both treatments. The overall schedule is described in Table 9.
Responders and non-responders were selected based on tumor volume at day 20. The volume of the tumor at the beginning of the treatments (day 10) was on average about 75 mm^3. Based on this value of tumor volume, we classified the animals according to the following criteria: • Animals with tumor volume lower or equal to 75 mm^3 were considered RESPONDERS (R) • Animals with tumor volume greater than 75 mm^3 were considered NON RESPONDERS (NR)

[2] = tested on: tumor microenvironment of CT26-bearing animals; test: Ex-vivo RNAseq gene expression in tumor microenvironment of CT26-bearing mice, responders vs non responders; set-up: species or system BALB/c mice; details: RNAseq total counts
Description: as §1
RNA was extracted from flash frozen tumors using the Qiagen extraction kit and stored at −80° C. A paired-end sequencing was chosen, in which short reads are obtained from ends of DNA fragments for ultra-high-throughput sequencing. Prior to further analysis, a quality check was performed on the sequencing data. All samples contain sequences 75 nucleotides long (75 nt×2).
The RNA-Seq analysis pipeline involved several steps: • 1. Quality Control of the reads, • 2. Removal of low quality reads • 3. Reads spliced Alignment • 4. Transcriptome expression quantification analysis
The sample was mapped on reference Mus musculus genome (mm10) using the bioinformatics tool STAR (version 2.4.0d), with the standard parameters for paired reads. The reference track was the assembly mm10 obtained from Refseq. […] Average mapping ratio was above 93% and Ribosomal content was below 1% for all samples.
The quantification of transcripts expressed for each sequenced sample was performed using Cufflinks. The units of measurement used in Cufflinks is FPKM (Fragments Per Kilobase of transcript per Million mapped reads) and it is meant to be a measure of relative abundance of a transcript/gene in a RNA pool. It is not intended to be used directly for Differential Expression but it is meant to be human readable, and takes into account main technical confounding factors such as millions of reads and gene length.
Responders and non-responders were selected based on tumor volume at day 20. […]
Statistical significance was determined by unpaired t-test using GraphPad software (version 9), p-values […] were considered significant.

SMILES: O=C(NO)c1ccc(Cn2nnnc2-c2cccs2)cc1 [ITF3756, N-hydroxy-4-((5-(thiophen-2-yl)-1 H-tetrazol-1-yl)methyl)benzamide]
- IRF6 gene modulation (PBMC): upregulation
- STAB1 gene modulation (PBMC): downmodulation
- tolerability [1]: well tolerated
- tumor response (tumor volume) (CT26 tumor cells): heterogeneous response
- IRF6 expression in the tumor microenvironment, responders compared to non responders ([2]; p<0.1): striking expression upregulation
- CD40 expression in the tumor microenvironment, responders compared to non-responder mice ([2]; unpaired t-test): statistically significant upregulation
- MMP9 expression in the tumor microenvironment, responders compared to non responders ([2]; unpaired t-test): statistically significant reduction
